Measured values as given in US4396770A, “1-[3-(6-Fluoro-1,2-benzisoxazol-3-yl)propyl]-4-hydroxy -4-phenylpiperidines” (Hoechst-Roussel Pharmaceuticals Inc., priority 1982, dated 1983).
Read-outs that look alike come from different tables or passages of the source.

Legend:
[1] = system: apomorphine-induced climbing; experiment: climbing mice assay (antipsychotic activity); type: in vivo, CK-1 male mice; conditions: Mus musculus, ip
Description: The 1-[3-(6-fluoro-1,2-benzisoxazol-3-yl)propyl]-4-hydroxy-4-phenylpiperidinesof the present invention are useful for treating psychoses by virtue of their ability to block apomorphine-induced climbing in mammals.
Antipsychotic activity is determined in the climbing mice assay by a method similar to those described by P. Protais et al., Psychopharmacol., 50, 1 (1976) and B. Costall, Eur. J. Pharmacol., 50, 39 (1978).
The subject CK-1 male mice (23-27 grams) are group-housed under standard laboratory conditions. The mice are individually placed in wire mesh stick cages (4"×4"×10") and are allowed one hour for adaptation and exploration of the new environment. Then apomorphine is injected subcutaneously at 1.5 mg/kg, a dose causing climbing in all subjects for 30 minutes. Compounds to be tested for antipsychotic activity are injected intraperitoneally 30 minutes prior to the apomorphine challenge at a screening dose of 10 mg/kg.
For evaluation of climbing, 3 readings are taken at 10, 20 and 30 minutes after apomorphine administration according to the following scale:
Mice consistently climbing before the injection of apormorphine will be discarded.
With full-developed apomorphine climbing, the animals are hanging onto the cage walls, rather motionless, over longer periods of time. By contrast, climbs due to mere motor stimulation usually only last a few seconds.
The climbing scores are individually totaled (maximal score: 6 per mouse over 3 readings) and the total score of the control group (vehicle intraperitoneally--apomorphine subcutaneously) is set to 100%. ED50 values with 95% confidence limits are calculated by a Linear Regression Analysis. Antipsychotic activity expressed as the ED50 value of representative 1-[3-(6-fluoro-1,2-benzisoxazol-3-yl)propyl]-4-hydroxy-4-phenylpiperidinesas well as two standard antipsychotics are presented in Table II.

[2] = system: phenyl-para-quinone induced writhes; experiment: phenyl-para-quinone writhing assay in mice (analgesia); type: in vivo; conditions: Mus musculus, sc, subcutaneous, estimated dose for 50% reduction in phenyl-para-quinone induced writhes, read-out: Analgesic Activity (ED50 mg/kg)
From the text: Exptl. Biol. Med., 95, 729 (1953)]. Presented in Table 1 is the analgesic activity of representative compounds of the invention and two standards, expressed as the estimated subcutaneous dose at which the mice experience a 50% reduction in phenyl-para-quinone induced writhes, i.e., the ED50 -value.

[3] = read-out: Antipsychotic Activity ED50 (mg/kg)

Row | SMILES | ED50 [1, 3] | ED50 [2] | ED50 ([1]; mice, intraperitoneal 30 minutes prior to apomorphine 1.5 mg/kg subcutaneously, climbing scores at 10, 20 and 30 minutes, read-out: Antipsychotic Activity ED50)
1 | OC1(c2ccccc2)CCN(CCCc2noc3cc(F)ccc23)CC1 [Example 1, 1-[3-(6-Fluoro-1,2-benzisoxazol-3-yl)propyl]-4-hydroxy-4-phenylpiperidine] | 9.6 mg/kg | 5.9 mg/kg | –
2 | Cl.OC1(c2cccc(Cl)c2)CCN(CCCc2noc3cc(F)ccc23)CC1 [Example 2, 4-(3-Chlorophenyl)-1-[3-(6-fluoro-1,2-benzisoxazol-3-yl)propyl]-4-hydroxypiperidine hydrochloride] | 0.8 mg/kg | 0.8 mg/kg | –
3 | OC1(c2ccc(Cl)cc2)CCN(CCCc2noc3cc(F)ccc23)CC1 [Example 3, 4-(4-Chlorophenyl)-1-[3-(6-fluoro-1,2-benzisoxazol-3-yl)propyl]-4-hydroxypiperidine] | 0.51 mg/kg | – | –
4 | OC1(c2ccc(F)cc2)CCN(CCCc2noc3cc(F)ccc23)CC1 [Example 4, 1-[3-(6-Fluoro-1,2-benzisoxazol-3-yl)propyl]-4-(4-fluorophenyl)-4-hydroxypiperidine] | 0.8 mg/kg | 6.2 mg/kg | –
5 | Cc1ccccc1C1(O)CCN(CCCc2noc3cc(F)ccc23)CC1.Cl [Example 5, 1-[3-(6-Fluoro-1,2-benzisoxazol-3-yl)propyl]-4-hydroxy-4-(2-methylphenyl)piperidine hydrochloride] | 8.3 mg/kg | – | –
6 | Cc1ccc(C2(O)CCN(CCCc3noc4cc(F)ccc34)CC2)cc1 [Example 6] | 0.56 mg/kg | – | –
7 | COc1ccc(C2(O)CCN(CCCc3noc4cc(F)ccc34)CC2)cc1.Cl [Example 7, 1-[3-(6-Fluoro-1,2-benzisoxazol-3-yl)propyl]-4-hydroxy-4-(4-methoxyphenyl)piperidine hydrochloride] | – | 3.8 mg/kg | –
8 | Cl.OC1(c2cccc(C(F)(F)F)c2)CCN(CCCc2noc3cc(F)ccc23)CC1 [Example 8, 1-[3-(6-Fluoro-1,2-benzisoxazol-3-yl)propyl]-4-hydroxy-4-(3-trifluoromethylphenyl)piperidine hydrochloride] | 0.25 mg/kg | 1 mg/kg | –
9 | OC1(c2ccc(C(F)(F)F)cc2)CCN(CCCc2noc3cc(F)ccc23)CC1 [Example 9, 1-[3-(6-Fluoro-1,2-benzisoxazol-3-yl)propyl]-4-hydroxy-4-(4-trifluoromethylphenyl)piperidine] | 3.1 mg/kg | – | –
10 | O=C(CCCN1CCC(O)(c2ccc(Cl)cc2)CC1)c1ccc(F)cc1 [haloperidol, reference compound] | 0.11 mg/kg | – | –
11 | CC(C)=CCN1CCC2(C)c3cc(O)ccc3CC1C2C (centres unmarked) [pentazocin, reference compound] | – | 1.3 mg/kg | –
12 | CCC(=O)O[C@](Cc1ccccc1)(c1ccccc1)[C@H](C)CN(C)C [propoxyphene, reference compound] | – | 3.9 mg/kg | –
13 | CCN1CCCC1CNC(=O)c1cc(S(N)(=O)=O)ccc1OC (centres unmarked) [sulpiride, reference compound] | – | – | 4.5 mg/kg
